Measured values: the NIST ThermoML archive (doi:10.1021/je060271a)
Where “and” joins values, the source holds several entries; their conditions need not be identical. Equal values may be shown once.

Conditions: 343.15 K, Liquid, Vibrating tube method

CCCCCC(=O)OCC(COC(=O)CCCCC)(COC(=O)CCCCC)COC(=O)CCCCC [pentaerythritol tetrahexanoate]
Conditions | mass density
242.7 kPa | 957.2 kg/m3
242.9 kPa | 957.3 kg/m3
243.1 kPa | 957.3 kg/m3
243.2 kPa | 957.3 kg/m3 and 957.2 kg/m3
243.6 kPa | 957.2 kg/m3
243.9 kPa | 957.3 kg/m3 and 957.1 kg/m3
244.3 kPa | 957.3 kg/m3
244.5 kPa | 957.2 kg/m3 and 957.3 kg/m3
244.8 kPa | 957.3 kg/m3
245 kPa | 957.2 kg/m3 and 957.4 kg/m3
245.3 kPa | 957.3 kg/m3 and 957.2 kg/m3
245.5 kPa | 957.2 kg/m3
245.7 kPa | 957.2 kg/m3
245.9 kPa | 957.3 kg/m3
246.2 kPa | 957.4 kg/m3
246.4 kPa | 957.3 kg/m3
246.6 kPa | 957.3 kg/m3
249 kPa | 957.2 kg/m3
249.5 kPa | 957.2 kg/m3
249.9 kPa | 957.4 kg/m3
250 kPa | 957.2 kg/m3
250.2 kPa | 957.1 kg/m3
251.6 kPa | 957.3 kg/m3
251.8 kPa | 957.3 kg/m3 and 957.2 kg/m3
251.9 kPa | 957.3 kg/m3
252.3 kPa | 957.3 kg/m3 and 957.2 kg/m3
252.6 kPa | 957.1 kg/m3
252.8 kPa | 957.2 kg/m3
253.2 kPa | 957.2 kg/m3
253.3 kPa | 957.3 kg/m3 and 957.2 kg/m3 and 957.4 kg/m3
253.7 kPa | 957.2 kg/m3
254 kPa | 957.2 kg/m3
254.4 kPa | 957.2 kg/m3
254.9 kPa | 957.3 kg/m3
255.1 kPa | 957.2 kg/m3 and 957.3 kg/m3
255.4 kPa | 957.3 kg/m3
255.6 kPa | 957.4 kg/m3
256.3 kPa | 957.3 kg/m3
256.5 kPa | 957.1 kg/m3
256.6 kPa | 957.2 kg/m3
256.8 kPa | 957.2 kg/m3
257 kPa | 957.2 kg/m3
257.3 kPa | 957.3 kg/m3
257.5 kPa | 957.2 kg/m3
257.7 kPa | 957.3 kg/m3
257.9 kPa | 957.3 kg/m3
258.2 kPa | 957.2 kg/m3
259.2 kPa | 957.2 kg/m3
259.6 kPa | 957.4 kg/m3
259.9 kPa | 957.3 kg/m3
260.1 kPa | 957.3 kg/m3
260.4 kPa | 957.3 kg/m3
260.6 kPa | 957.3 kg/m3
261 kPa | 957.3 kg/m3 and 957.2 kg/m3
261.3 kPa | 957.2 kg/m3
261.5 kPa | 957.2 kg/m3
261.7 kPa | 957.2 kg/m3
261.8 kPa | 957.3 kg/m3
262.2 kPa | 957.3 kg/m3
262.5 kPa | 957.4 kg/m3
262.9 kPa | 957.4 kg/m3 and 957.2 kg/m3
263 kPa | 957.2 kg/m3
263.4 kPa | 957.1 kg/m3 and 957.4 kg/m3 and 957.3 kg/m3
263.7 kPa | 957.4 kg/m3 and 957.3 kg/m3
266.9 kPa | 957.4 kg/m3
270.7 kPa | 957.2 kg/m3
271.2 kPa | 957.3 kg/m3
273.5 kPa | 957.3 kg/m3
273.6 kPa | 957.4 kg/m3
274 kPa | 957.3 kg/m3
274.3 kPa | 957.3 kg/m3
275.2 kPa | 957.3 kg/m3
275.6 kPa | 957.4 kg/m3
275.7 kPa | 957.4 kg/m3
275.9 kPa | 957.2 kg/m3
276.1 kPa | 957.4 kg/m3
276.4 kPa | 957.2 kg/m3
276.6 kPa | 957.4 kg/m3
276.9 kPa | 957.3 kg/m3
277.3 kPa | 957.3 kg/m3
277.6 kPa | 957.3 kg/m3
278 kPa | 957.3 kg/m3
278.2 kPa | 957.2 kg/m3
278.3 kPa | 957.2 kg/m3
278.7 kPa | 957.3 kg/m3
279 kPa | 957.3 kg/m3
279.2 kPa | 957.3 kg/m3
279.4 kPa | 957.2 kg/m3
279.6 kPa | 957.2 kg/m3
285.3 kPa | 957.4 kg/m3
285.6 kPa | 957.4 kg/m3 and 957.2 kg/m3
286.1 kPa | 957.3 kg/m3
286.3 kPa | 957.3 kg/m3
286.5 kPa | 957.3 kg/m3
286.7 kPa | 957.3 kg/m3
287 kPa | 957.4 kg/m3
287.2 kPa | 957.1 kg/m3
287.4 kPa | 957.3 kg/m3
287.5 kPa | 957.2 kg/m3
287.9 kPa | 957.3 kg/m3
288.2 kPa | 957.2 kg/m3
288.6 kPa | 957.3 kg/m3
288.7 kPa | 957.2 kg/m3
288.9 kPa | 957.3 kg/m3
289.1 kPa | 957.3 kg/m3
289.4 kPa | 957.2 kg/m3
289.8 kPa | 957.2 kg/m3 and 957.3 kg/m3
291.2 kPa | 957.3 kg/m3
291.4 kPa | 957.3 kg/m3
291.5 kPa | 957.4 kg/m3 and 957.2 kg/m3
291.9 kPa | 957.4 kg/m3
292.2 kPa | 957.3 kg/m3
292.4 kPa | 957.3 kg/m3 and 957.4 kg/m3
292.7 kPa | 957.4 kg/m3
293.1 kPa | 957.3 kg/m3
293.4 kPa | 957.3 kg/m3
293.6 kPa | 957.3 kg/m3
294.6 kPa | 957.3 kg/m3
294.7 kPa | 957.3 kg/m3
296.4 kPa | 957.4 kg/m3 and 957.3 kg/m3
296.6 kPa | 957.3 kg/m3
297.1 kPa | 957.3 kg/m3
297.3 kPa | 957.3 kg/m3
297.6 kPa | 957.4 kg/m3
298 kPa | 957.4 kg/m3 and 957.3 kg/m3 and 957.2 kg/m3
298.5 kPa | 957.3 kg/m3
298.8 kPa | 957.4 kg/m3
299 kPa | 957.2 kg/m3
299.9 kPa | 957.3 kg/m3
305.4 kPa | 957.4 kg/m3
305.8 kPa | 957.2 kg/m3
306 kPa | 957.3 kg/m3
306.3 kPa | 957.4 kg/m3
306.8 kPa | 957.4 kg/m3 and 957.3 kg/m3
307.5 kPa | 957.3 kg/m3
307.9 kPa | 957.3 kg/m3
308.2 kPa | 957.3 kg/m3
308.4 kPa | 957.2 kg/m3
308.7 kPa | 957.5 kg/m3 and 957.3 kg/m3
309.1 kPa | 957.3 kg/m3
309.3 kPa | 957.3 kg/m3
309.4 kPa | 957.4 kg/m3
309.8 kPa | 957.1 kg/m3
310.6 kPa | 957.3 kg/m3
311.2 kPa | 957.3 kg/m3
